Experimental data taken from PMC5629014, “Assessment of sesquiterpene lactones isolated from Mikania plants species for their potential efficacy against Trypanosoma cruzi and Leishmania sp” (PLoS Neglected Tropical Diseases, 2017).
Converted amounts (≈) assume the structure as drawn. “Also recorded” adds a separate entry of the source. Read-outs that look alike come from different tables or passages of the source.

Tests used:
[1] = tested on: T. cruzi epimastigotes (RA strain); experiment: T. cruzi epimastigotes growth inhibition, [3H] thymidine uptake assay; assay type: cell-based, Trypanosoma cruzi; details: for IC50: Trypanosoma cruzi, read-out: IC50 on T. cruzi epimastigotes
Method: (§1) Trypanosoma cruzi epimastigotes (RA strain) were grown in a biphasic medium. Cultures were routinely maintained by weekly passages at 28°C. T. cruzi bloodstream trypomastigotes (RA strain) and the recombinant Tulahuen strain expressing β-galactosidase (Tul-β-Gal) were obtained from infected CF1 mice by cardiac puncture at the peak of parasitemia on day 15 post-infection. Trypomastigotes were routinely maintained by infecting 21-day-old CF1 mice.
The evaluation of T. cruzi epimastigotes growth inhibition was performed by the [^3H] thymidine uptake assay. Briefly, exponentially growing epimastigotes were adjusted to a cell density of 1.5 × 10^6 parasites/mL in fresh medium. Parasites were allowed to grow for 72 h at 28°C in medium with or without different concentrations of each compound (0–5 μg/mL) in triplicate. Percent of inhibition was calculated as {100 − [(cpm of treated parasites/ cpm of untreated parasites) × 100]}. The compound concentration at which the parasite growth was inhibited by 50% (IC50) was determined after 72 h. Benznidazole was used as positive control.

[2] = tested on: T. cruzi bloodstream trypomastigotes; experiment: Trypanocidal effect on bloodstream trypomastigotes, live parasite count in Neubauer chamber; assay type: cell-based; details: Trypanosoma cruzi; 24 h, remaining live parasites counted
Method: as §1
The trypanocidal effect of the purified compounds was also tested on bloodstream trypomastigotes. Briefly, mouse blood containing trypomastigotes was diluted in complete RPMI -1640 Medium (Sigma-Aldrich R6504- Batch 029K83102) with 10% (vol/vol) fetal calf serum (FCS) (Internegocios) to adjust the parasite concentration to 3 × 10^5/mL. Parasites were seeded in duplicate in a 96-well microplate in the presence of each compound (0–50 μg/mL) or controls and incubated at 4 °C for 24 h. The number of remaining living parasites in each sample was determined in 5 μL of cell suspension diluted 1/5 in lysis buffer (0.75% NH4Cl, 0.2% Tris, pH 7.2) and counted in a Neubauer chamber. Benznidazole was used as positive control.

T. cruzi amastigotes = experiment: Inhibition of intracellular amastigotes, β-galactosidase transfected parasites in Raw 264.7 cells (CPRG); assay type: cell-based; details: Trypanosoma cruzi
Method: as §1
The effect of each compound on intracellular forms of T. cruzi was assayed using β-galactosidase transfected parasites. Briefly, 96-well plates were seeded with Raw 264.7 cells at 5x10^3 per well in […] of culture medium and incubated for 24 h at 37 °C in a 5% CO2 atmosphere. Cells were washed and infected with transfected blood trypomastigotes expressing β-galactosidase at a parasite/cell ratio of 10:1. After 12 h of co- culture, plates were washed twice with PBS to remove unbound parasites and each pure compound was added at different concentrations (0.001–50 μg/mL) in 150 μL of fresh complete RPMI medium without phenol red (Gibco, Rockville, MD). Controls included infected untreated cells (100% infection control) and uninfected cells (0% infection control). The assay was developed 5 days later by the addition of chlorophenol red-β-D-galactopyranoside (CPRG) (100 mM) and 1% Nonidet P40. Plates were then incubated for 4–6 h at 37 °C and the absorbance was measured at 595 nm in a microplate reader (Bio-Rad Laboratories, Hercules, CA). The percentage inhibition was calculated as 100–{[(absorbance of treated infected cells)/(absorbance of untreated infected cells) x 100} and the IC50 value was estimated. Benznidazole was used as positive control.

[3] = tested on: Leishmania braziliensis promastigotes (MHOM/BR/75/M2903 strain); experiment: Growth inhibition of Leishmania braziliensis promastigotes, MTT method; assay type: cell-based; details: 72 h, read-out: IC50 on L. braziliensis promastigotes
Method: Leishmania braziliensis promastigotes (MHOM/BR/75/M2903 strain) were grown in liver infusion tryptose medium LIT, which was prepared as follows: 5 g/L liver infusion (Sigma 2023-072K1066), 5 g/L tryptose (Britania), 2 g/L glucose (Sigma), 68 mM NaCl, 5.4 mM KCl, 22 mM HPO4Na2, supplemented with 20 mg/L hemin (Sigma) and 10% (vol/vol) fetal calf serum (FCS) (Internegocios). Culture maintenance was performed by weekly passages at 26°C.
The growth inhibition of Leishmania braziliensis promastigotes was evaluated by the MTT method. Parasites (5x10^6) were settled at a final volume of 150 μL in a flat-bottom 96-well microplate and cultured at 37°C in a 5% CO2 atmosphere in the absence or presence of increasing concentrations of the pure compounds. After 72 h, 3-(4,5- dimethylthiazol-2-yl)-2,5-diphenyltetrazolium bromide (MTT) was added at a final concentration of 1.5 mg/mL. Plates were incubated for 2 h at 37°C. The purple formazan crystals formed were completely dissolved by adding 150 μL of ethanol and the absorbance was read at 595 nm in a microplate reader. The inhibition percentage was calculated as {100 − [(DO595nm of treated parasites/ DO595nm of untreated parasites) × 100]}. Compounds were tested at 0–50 μg/mL. Amphotericin B was used as positive control.

[4] = Host cell toxicity, trypan blue exclusion method; assay type: cell-based, human; details: human
Method: (§2) The human monocyte leukemia THP1 (ATCC TIB202) cell line were obtained from the vendor. Cells were thawed, expanded and settled at a concentration 5x10^5 in a final volume of 150 μL in a flat-bottom 96-well microplate and cultured at 37°C in a 5% CO2 atmosphere in the absence or presence of increasing concentrations of the pure compounds. After 24 h, the cell viability was determined by the trypan blue exclusion method in the absence and presence of increasing concentrations of the compounds [26]. The 50% cytotoxic concentration (CC50) and the selectivity index (SI = CC50/IC50) were determined for each compound for T. cruzi trypomastigotes and amastigotes.

[5] = tested on: human monocyte leukemia THP1 cells; experiment: Host cell toxicity, trypan blue exclusion method; assay type: cell-based; details: 24 h
Method: as §2

T. cruzi (RA strain) = experiment: Animal model of T. cruzi infection (acute, lethal dose); assay type: in vivo, Balb/c mice
Method: Inbred male Balb/c mice were nursed at the Departamento de Microbiología, Facultad de Medicina, Universidad de Buenos Aires. Groups of six Balb/c male mice (6 to 8 weeks old) were infected with 1000 bloodstream T. cruzi trypomastigotes by the intraperitoneal route. Five days after infection, the presence of circulating parasites was confirmed by the microhematocrit method (Sülsen et al., 2013). Mice were treated daily with compound 3 or benznidazole (1 mg/kg of body weight/day) for five consecutive days (days 4 to 8 post-infection) by the intraperitoneal route. Drugs were resuspended in DMSO and then adjust to concentration in 0.1 M phosphate buffered saline (PBS, pH 7.2); this vehicle was also employed as a negative control. Levels of parasitemia were monitored every 2 days in 5 μL of blood diluted 1:5 in lysis buffer (0.75% NH4Cl, 0.2% Tris, pH 7.2) by counting parasites in a Neubauer chamber. The number of animal deaths was recorded daily.
The weight of each animal was evaluated during the acute phase of infection. Results were expressed as the ratio between the weight on each day and the weight registered the day of the infection multiplied by 100.
Parasitemia and weight loss were analyzed using a non parametric test: Mann-Whitney test. The survival curves were analyzed with a log rank test.

TNF-α = experiment: Cytokine production by macrophages, TNF-α sandwich ELISA; assay type: cell-based; details: RAW 264.7 macrophages, 25 μg/mL, 24 h, p<0.01
Method: RAW 264.7 (ATCC TIB71) macrophage cell line were obtained from ATCC and cultured (1×10^5) in duplicate in 24-well plates in the presence of 2.5 or 25 μg/mL of Compound 3, LPS (10 μg/mL) plus INF-γ (0.30 μg/mL) (positive control), or medium alone (negative control). After 24 h, supernatants were collected and stored at -80 °C until cytokine analysis. IL-12 and TNF-α levels were determined by sandwich ELISA (BD Pharmingen, and R&D System, Minneapolis, MN, respectively) according to manufacturer’s instructions. Supplied standards were used to generate a standard curve.

IL-12 = experiment: Cytokine production by macrophages, IL-12 sandwich ELISA; assay type: cell-based; details: RAW 264.7 macrophages, 24 h
Method: […] After 24 h, supernatants were collected and stored at -80 °C until cytokine analysis. IL-12 and TNF-α levels were determined by sandwich ELISA (BD Pharmingen, and R&D System, Minneapolis, MN, respectively) according to manufacturer’s instructions. Supplied standards were used to generate a standard curve.

[6] = 72 h, 28°C, [3H] thymidine uptake
[7] = RAW264.7, β-galactosidase expressing T. cruzi in mammalian cells, read-out: IC50 on T. cruzi amastigotes
[8] = THP1 (ATCC TIB202) monocyte leukemia cells
[9] = infected Balb/c mice, 1 mg/kg/day i.p., days 4 to 8 post-infection

SMILES	IC50 [1, 6] [µg/mL]	IC50 [2] [µg/mL]	IC50 (T. cruzi amastigotes; [7]) [µg/mL]	IC50 ([3]; MTT) [µg/mL]	CC50 at 24 h [4, 8] [µg/mL]	CC50 [5] [µg/mL]	reduction of area under the parasitemia curve with respect to controls (T. cruzi (RA strain); [9]) [fold]	also measured
C[C@H]1C(=O)O[C@H]2C[C@]3(C)O[C@H]3[C@@H]3O[C@@H]3C3=C[C@@H](OC3=O)[C@@H]21 [dihydromikanolide]	2.5 (≈ 8.55 µM)	0.3 (≈ 1.03 µM)	8.5 (≈ 29.1 µM)	57.1 (≈ 195 µM)	13 (≈ 44.4 µM)	13.0 (≈ 44.5 µM)	–	–
O=C(Cn1ccnc1[N+](=O)[O-])NCc1ccccc1 [benznidazole, reference compound]	1.7 (≈ 6.53 µM)	10.4 (≈ 40 µM)	1.1 (≈ 4.23 µM)	–	–	–	2.3	–
C=C1C(=O)OC2CC3(C)OC3CC(OC(C)=O)C3=CC(OC3=O)C12 (centres unmarked) [scandenolide]	137 (≈ 410 µM)	68.4 (≈ 205 µM)	60.6 (≈ 181 µM)	252 (≈ 754 µM)	864 (≈ 2580 µM)	–	–	activity on Trypanosoma cruzi ([1]; in words, all T. cruzi stages (abstract)): not active
C=C1C(=O)OC2CC3(C)OC3C3OC3C3=CC(OC3=O)C12 (centres unmarked) [mikanolide]	–	2.1 (≈ 7.23 µM)	–	–	–	–	–	IC50 [1]: 0.7 µg/mL (≈ 2.41 µM); IC50 (T. cruzi amastigotes; RAW264.7, read-out: IC50 on T. cruzi amastigotes): 4.5 µg/mL (≈ 15.5 µM); IC50 [3]: 5.1 µg/mL (≈ 17.6 µM); CC50 at 24 h ([4]; THP1 cells): 22.3 µg/mL (≈ 76.8 µM)
C=C1C(=O)OC2CC3(C)OC3CCC3=CC(OC3=O)C12 (centres unmarked) [deoxymikanolide]	0.08 (≈ 0.29 µM)	1.5 (≈ 5.43 µM)	6.3 (≈ 22.8 µM)	11.5 (≈ 41.6 µM)	79.4 (≈ 287 µM)	79.4 (≈ 287 µM)	1.5	weight loss during the acute phase of infection compared to control mice (T. cruzi (RA strain); 20 days post infection, p = 0.028): able to reduce the weight loss; blood parasitemia compared to controls (T. cruzi (RA strain); infected Balb/c mice, 1 mg/kg/day i.p., days 4 to 8 post-infection, 1 mg/kg/day): decrease the parasitemia; also recorded: lower blood parasitemia; mice surviving the acute phase of infection (T. cruzi (RA strain); lethal T. cruzi infection, controls 100% mortality by day 22, p = 0.02 Log-rank): 70%; secretion of TNF-α compared with negative control (TNF-α): significant increase; IL-12 production (IL-12; 2 μg/mL): slight increase; IL-12 production (IL-12; 25 μg/mL): higher production rate
C[C@@H]1[C@H](O)[C@@H](C)/C=C/C=C/C=C/C=C/C=C/C=C/C=C/[C@H](O[C@@H]2O[C@H](C)[C@@H](O)[C@H](N)[C@@H]2O)C[C@@H]2O[C@](O)(C[C@@H](O)C[C@@H](O)[C@H](O)CC[C@@H](O)C[C@@H](O)CC(=O)O[C@H]1C)C[C@H](O)[C@H]2C(=O)O [amphotericin B, reference compound]	–	–	–	0.26 (≈ 0.281 µM)	–	–	–	–
